Laboratory results: patent US20100022526A1, “PYRIDAZINE DERIVATIVES, PROCESSES FOR THEIR PREPARATION AND THEIR USE AS FUNGICIDES” (SYNGENTA CROP PROTECTION, INC., priority 2007, published 2010)

How the values were obtained:
[1] = system: Alternaria solani; assay: Alternaria solani/tomato/Preventive (Action against Alternaria on Tomato); format: in vivo; conditions: preventive spray, tomato plants cv. Roter Gnom, inoculated two days after application, assessed after 4 days, untreated controls infected over 80%, read-out: inhibit fungal infestation
Description: (§1) Alternaria solani/tomato/Preventive (Action against Alternaria on Tomato) 4 weeks old tomato plants cv. Roter Gnom are treated with the formulated test compound in a spray chamber. Two days after application tomato plants are inoculated by spraying a spore suspension on the test plants. After an incubation period of 4 days at 22° C./18° C. and 95% r. h. in a greenhouse the disease incidence is assessed.

[2] = system: Magnaporthe grisea (Pyricularia oryzae); assay: whole plant or invertebrate; format: in vivo; conditions: read-out: inhibit fungal infestation
[3] = system: Septoria tritici; assay: Sentoria tritici/wheat/Preventive (Action against Septoria Leaf Spot on Wheat); format: in vivo; conditions: Zymoseptoria tritici, preventive spray, wheat plants cv. Riband, inoculated one day after application, assessed 16-18 days after inoculation, untreated controls infected over 80%, read-out: inhibits fungal infestation
Description: Sentoria tritici/wheat/Preventive (Action against Septoria Leaf Spot on Wheat) 2 weeks old wheat plants cv. Riband are treated with the formulated test compound in a spray chamber. One day after application wheat plants are inoculated by spraying a spore suspension (10^6 conidia/ml) on the test plants. After an incubation period of 1 day at 22° C./21° C. and 95% r. h. plants are kept at 22° C./21° C. and 70% r.h. in a greenhouse. The disease incidence is assessed 16-18 days after inoculation.

[4] = system: Botrytis cinerea; assay: Botrytis cinerea/tomato/preventive (Action against Botrytis on Tomato); format: in vivo; conditions: preventive spray, tomato plants cv. Roter Gnom, inoculated two days after application, assessed after 3 days, untreated controls infected over 80%, read-out: inhibit fungal infestation
Description: as §1, with “Botrytis cinerea/tomato/preventive (Action” for “Alternaria solani/tomato/Preventive (Action”, “against Botrytis” for “against Alternaria”, “of 3” for “of 4”, “at 20°” for “at 22° C./18°”

[5] = system: Puccinia recondita; assay: Puccinia recondita/wheat/preventive (Action against Brown Rust on Wheat); format: in vivo; conditions: preventive spray, wheat plants cv. Arina, inoculated one day after application, assessed 11 days after inoculation, untreated controls infected over 80%, read-out: inhibits fungal infestation
Description: Puccinia recondita/wheat/preventive (Action against Brown Rust on Wheat) 1 week old wheat plants cv. Arina are treated with the formulated test compound in a spray chamber. One day after application wheat plants are inoculated by spraying a spore suspension (1×105 uredospores/ml) on the test plants. After an incubation period of 1 day at 20° C. and 95% r. h. plants are kept for 10 days 20° C./18° C. (day/night) and 60% r.h. in a greenhouse. The disease incidence is assessed 11 days after inoculation.

[6] = system: Pyrenophora teres (Helminthosporium teres); assay: Pyrenophora teres (Helminthosporium teres)/barley/preventive (Action against Net Blotch on Barley); format: in vivo; conditions: preventive spray, barley plants cv. Regina, inoculated two days after application, assessed after 4 days, untreated controls infected over 80%, read-out: inhibit fungal infestation
Description: Pyrenophora teres (Helminthosporium teres)/barley/preventive (Action against Net Blotch on Barley) 1-week-old barley plants cv. Regina are treated with the formulated test compound in a spray chamber. Two days after application barley plants are inoculated by spraying a spore suspension (2.6×10^4 conidia/ml) on the test plants. After an incubation period of 4 days at 20° C. and 95% r. h. the disease incidence is assessed.

[7] = system: Uncinula necator; assay: Uncinula necator/grape/preventive (Action against Powdery Mildew on Grape); format: in vivo; conditions: Erysiphe necator, preventive spray, grape seedlings cv. Gutedel, inoculated one day after application, assessed after 7 days, untreated controls infected over 80%, read-out: inhibit fungal infestation
Description: Uncinula necator/grape/preventive (Action against Powdery Mildew on Grape) 5 weeks old grape seedlings cv. Gutedel are treated with the formulated test compound in a spray chamber. One day after application grape plants are inoculated by shaking plants infected with grape powdery mildew above the test plants. After an incubation period of 7 days at 24° C./22° C. and 70% r. h. under a light regime of 14/10 h (light/dark) the disease incidence is assessed.

| SMILES | inhibition at 200 ppm [1] | inhibition at 200 ppm [2] | melting point | inhibition at 200 ppm [3] | inhibition at 200 ppm [4] | inhibition at 200 ppm [5] | inhibition at 200 ppm [6] | inhibition at 200 ppm [7] |
| --- | --- | --- | --- | --- | --- | --- | --- | --- |
| Fc1cc(F)c(-c2c(Cl)nnc(Cl)c2-c2cccc(Cl)c2)c(F)c1 [I.b. 198, 3,6-dichloro-4-(3-chloro-phenyl)-5-(2,4,6-trifluoro-phenyl)-pyridazine] | ≥ 80% | ≥ 80% | 138 to 140 °C | ≥ 80% | ≥ 80% | – | – | – |
| Fc1cc(F)c(-c2c(Cl)nnc(Cl)c2-c2cccc(Br)c2)c(F)c1 [I.c. 198, 3,6-dichloro-4-(3-bromo-phenyl)-5-(2,4,6-trifluoro-phenyl)-pyridazine] | – | – | 120 to 121 °C | – | – | ≥ 80% | ≥ 80% | – |
| Cc1cccc(-c2c(Cl)nnc(Cl)c2-c2c(F)cc(F)cc2F)c1 [I.d. 198, 3,6-dichloro-4-m-tolyl-5-(2,4,6-trifluoro-phenyl)-pyridazine] | – | – | 121 to 123 °C | ≥ 80% | – | – | ≥ 80% | – |
| Oc1nnc(O)c(-c2c(F)cc(F)cc2F)c1-c1cccc(C(F)(F)F)c1 [I.e.196, 4-(3-trifluoromethyl-phenyl)-5-(2,4,6-trifluoro-phenyl)-pyridazine-3,6-diol] | – | – | 259 to 260 °C | – | – | – | – | – |
| Fc1cc(F)c(-c2c(Cl)nnc(Cl)c2-c2cccc(C(F)(F)F)c2)c(F)c1 [I.e. 198, 3,6-dichloro-4-(3-trifluoromethyl-phenyl)-5-(2,4,6-trifluoro-phenyl)-pyridazine] | – | – | 117 to 119 °C | – | ≥ 80% | – | – | ≥ 80% |
| Fc1ccc(-c2c(F)nnc(F)c2-c2c(F)cc(F)cc2F)cc1 [I.j. 197, 3,6-difluoro-4-(4-fluoro-phenyl)-5-(2,4,6-trifluoro-phenyl)-pyridazine] | ≥ 80% | – | 74 to 76 °C | ≥ 80% | ≥ 80% | ≥ 80% | ≥ 80% | – |
| Fc1ccc(-c2c(Cl)nnc(Cl)c2-c2c(F)cc(F)cc2F)cc1 [I.j. 198, 3,6-dichloro-4-(4-fluoro-phenyl)-5-(2,4,6-trifluoro-phenyl)-pyridazine] | ≥ 80% | ≥ 80% | 143 to 145 °C | ≥ 80% | ≥ 80% | ≥ 80% | ≥ 80% | ≥ 80% |
| COc1nnc(Cl)c(-c2c(F)cc(F)cc2F)c1-c1ccc(F)cc1 [I.j. 199, 3-chloro-5-(4-fluoro-phenyl)-6-methoxy-4-(2,4,6-trifluoro-phenyl)-pyridazine] | ≥ 80% | ≥ 80% | 146 to 151 °C | ≥ 80% | ≥ 80% | – | ≥ 80% | ≥ 80% |
| Oc1nnc(O)c(-c2c(F)cccc2Cl)c1-c1ccc(Cl)cc1 [I.k.076, 4-(4-chloro-phenyl)-5-(2-chloro-6-fluoro-phenyl)-pyridazine-3,6-diol] | – | – | 144 to 149 °C | – | – | – | – | – |
| Fc1cccc(Cl)c1-c1c(Cl)nnc(Cl)c1-c1ccc(Cl)cc1 [I.k.078, 3,6-dichloro-4-(2-chloro-6-fluoro-phenyl)-5-(4-chloro-phenyl)-pyridazine] | – | – | 144 to 145 °C | – | – | – | – | – |
| COc1nnc(Cl)c(-c2c(F)cccc2Cl)c1-c1ccc(Cl)cc1 [I.k.079, 3-chloro-4-(2-chloro-6-fluoro-phenyl)-5-(4-chloro-phenyl)-6-methoxy-pyridazine] | – | – | 137 to 141 °C | – | – | – | – | – |
| Oc1nnc(O)c(-c2c(F)cc(F)cc2F)c1-c1ccc(Cl)cc1 [I.k.196, 4-(4-chloro-phenyl)-5-(2,4,6-trifluoro-phenyl)-pyridazine-3,6-diol] | – | – | 158 to 164 °C | – | – | – | – | – |
| Fc1cc(F)c(-c2c(Cl)nnc(Cl)c2-c2ccc(Cl)cc2)c(F)c1 [I.k. 198, 3,6-dichloro-4-(4-chloro-phenyl)-5-(2,4,6-trifluoro-phenyl)-pyridazine] | – | ≥ 80% | – | ≥ 80% | ≥ 80% | ≥ 80% | ≥ 80% | ≥ 80% |
| O=c1[nH][nH]c(=O)c(-c2c(F)cc(F)cc2F)c1-c1ccc(Br)cc1 [I.l.196, 4-(4-bromophenyl)-5-(2,4,6-trifluorophenyl)-1,2-dihydro-pyridazine-3,6-dione] | – | – | 272 to 274 °C | – | – | – | – | – |
| Fc1cc(F)c(-c2c(F)nnc(F)c2-c2ccc(Br)cc2)c(F)c1 [I.l. 197, 4-(4-bromophenyl)-3,6-difluoro-5-(2,4,6-trifluorophenyl)-pyridazine] | ≥ 80% | ≥ 80% | 132 to 133 °C | ≥ 80% | – | ≥ 80% | ≥ 80% | ≥ 80% |
| Fc1cc(F)c(-c2c(Cl)nnc(Cl)c2-c2ccc(Br)cc2)c(F)c1 [I.l. 198, 4-(4-bromophenyl)-3,6-dichloro-5-(2,4,6-trifluorophenyl)-pyridazine] | ≥ 80% | ≥ 80% | 134 to 137 °C | ≥ 80% | ≥ 80% | ≥ 80% | ≥ 80% | – |
| Cc1ccc(-c2c(Cl)nnc(Cl)c2-c2c(F)cc(F)cc2F)cc1 [I.m. 198, 3,6-dichloro-4-p-tolyl-5-(2,4,6-trifluoro-phenyl)-pyridazine] | ≥ 80% | – | – | ≥ 80% | ≥ 80% | ≥ 80% | ≥ 80% | ≥ 80% |
| COc1nnc(Cl)c(-c2c(F)cc(F)cc2F)c1-c1ccc(C)cc1 [I.m. 199, 3-chloro-6-methoxy-5-p-tolyl-4-(2,4,6-trifluoro-phenyl)-pyridazine] | – | – | 126 to 128 °C | ≥ 80% | – | ≥ 80% | – | – |
| CCc1ccc(-c2c(O)nnc(O)c2-c2c(F)cc(F)cc2F)cc1 [I.o.196, 4-(4-ethyl-phenyl)-5-(2,4,6-trifluoro-phenyl)-pyridazine-3,6-diol] | – | – | 278 to 289 °C | – | – | – | – | – |
| CCc1ccc(-c2c(OC)nnc(Cl)c2-c2c(F)cc(F)cc2F)cc1 [I.o. 199, 3-chloro-5-(4-ethyl-phenyl)-6-methoxy-4-(2,4,6-trifluoro-phenyl)-pyridazine] | ≥ 80% | ≥ 80% | 109 to 112 °C | ≥ 80% | – | ≥ 80% | – | ≥ 80% |
| COc1ccc(-c2c(O)nnc(O)c2-c2c(F)cc(F)cc2F)cc1 [I.p.196, 4-(4-methoxy-phenyl)-5-(2,4,6-trifluoro-phenyl)-pyridazine-3,6-diol] | – | – | 287 to 294 °C | – | – | – | – | – |
| COc1ccc(-c2c(Cl)nnc(Cl)c2-c2c(F)cc(F)cc2F)cc1 [I.p. 198, 3,6-dichloro-4-(4-methoxy-phenyl)-5-(2,4,6-trifluoro-phenyl)-pyridazine] | ≥ 80% | ≥ 80% | 106 to 109 °C | ≥ 80% | ≥ 80% | – | – | ≥ 80% |
| Fc1cc(F)c(-c2c(Cl)nnc(Cl)c2-c2ccc(Cl)c(Cl)c2)c(F)c1 [I.v. 198, 3,6-dichloro-4-(3,4-dichloro-phenyl)-5-(2,4,6-trifluoro-phenyl)-pyridazine] | ≥ 80% | – | 139 to 140 °C | ≥ 80% | ≥ 80% | – | ≥ 80% | – |
